Source: patent publication US9505762B2, “Purine derivatives as CB2 receptor agonists” (Hoffmann-La Roche Inc., priority 2013, dated 2016)

How the values were obtained:
human CB1 receptors = human CB1 receptors (Homo sapiens (Human), UniProt P21554); assay: functional cAMP assay, CB1; assay type: cell-based; conditions: CHO cells expressing human CB1
human CB2 receptors = human CB2 receptors (Homo sapiens (Human), UniProt P34972); assay: functional cAMP assay, CB2; assay type: cell-based; conditions: CHO cells expressing human CB2
human CB2 receptors, sequence (P34972 whole entry): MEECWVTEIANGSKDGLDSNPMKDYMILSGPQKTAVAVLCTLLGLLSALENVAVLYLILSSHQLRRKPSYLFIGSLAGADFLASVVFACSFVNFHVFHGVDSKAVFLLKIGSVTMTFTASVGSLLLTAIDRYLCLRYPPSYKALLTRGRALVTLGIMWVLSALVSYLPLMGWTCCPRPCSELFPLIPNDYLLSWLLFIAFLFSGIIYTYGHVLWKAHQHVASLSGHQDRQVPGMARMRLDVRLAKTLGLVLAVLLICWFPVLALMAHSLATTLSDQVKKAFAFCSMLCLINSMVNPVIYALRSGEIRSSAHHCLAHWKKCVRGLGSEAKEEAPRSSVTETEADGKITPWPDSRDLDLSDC

human CB1 receptors, sequence (P21554 whole entry): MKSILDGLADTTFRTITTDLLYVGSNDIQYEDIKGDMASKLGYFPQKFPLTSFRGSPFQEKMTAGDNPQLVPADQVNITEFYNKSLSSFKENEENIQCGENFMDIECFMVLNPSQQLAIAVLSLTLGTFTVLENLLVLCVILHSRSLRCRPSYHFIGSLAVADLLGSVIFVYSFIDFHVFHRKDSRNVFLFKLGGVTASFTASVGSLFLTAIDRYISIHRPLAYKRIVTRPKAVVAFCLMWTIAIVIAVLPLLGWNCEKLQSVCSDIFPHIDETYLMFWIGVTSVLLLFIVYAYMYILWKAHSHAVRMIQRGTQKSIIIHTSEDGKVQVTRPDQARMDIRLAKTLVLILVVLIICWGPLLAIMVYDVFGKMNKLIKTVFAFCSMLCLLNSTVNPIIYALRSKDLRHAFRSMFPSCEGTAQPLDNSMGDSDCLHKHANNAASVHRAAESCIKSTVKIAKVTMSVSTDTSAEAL

Compound: CC(C)(C)Nc1nc(N2CC3(COC3)C2)c2ncn(CCC(F)(F)F)c2n1 [Example 142, N-tert-butyl-6-(2-oxa-6-azaspiro[3.3]heptan-6-yl)-9-(3,3,3-trifluoropropyl)purin-2-amine]
- EC50 (human CB1 receptors): > 10000 nM
- EC50 (human CB2 receptors): 681 nM

Compound: COc1ccc(Cn2cnc3c(N4CCC(F)(F)C4)nc(C(C)(C)C)nc32)cc1 [Example 20, 2-tert-butyl-6-(3,3-difluoropyrrolidin-1-yl)-9-[(4-methoxyphenyl)methyl]purine]
- EC50 (human CB1 receptors): > 10000 nM
- EC50 (human CB2 receptors): 12.5 nM

Compound: CC(C)(C)c1nc(N2CCC(O)C2)c2ncn(CC(=O)c3ccccc3Cl)c2n1 (stereo not drawn) [Example 47, 2-[2-tert-butyl-6-(3-hydroxypyrrolidin-1-yl)purin-9-yl]-1-(2-chlorophenyl)ethanone]
- EC50 (human CB1 receptors): > 10000 nM
- EC50 (human CB2 receptors): 102 nM

Compound: CC(C)(C)c1nc(N2CCC(O)C2)c2ncn(C3CCOC3)c2n1 (stereo not drawn) [Example 46, 1-[2-tert-butyl-9-(oxolan-3-yl)purin-6-yl]pyrrolidin-3-ol]
- EC50 (human CB1 receptors): > 10000 nM
- EC50 (human CB2 receptors): 139 nM

Compound: CC1(O)CCN(c2nc(C(C)(C)C)nc3c2ncn3Cc2cccc(Cl)c2)C1 (stereo not drawn) [Example 65, 1-[2-tert-butyl-9-[(3-chlorophenyl)methyl]purin-6-yl]-3-methylpyrrolidin-3-ol]
- EC50 (human CB1 receptors): > 10000 nM
- EC50 (human CB2 receptors): 91.6 nM

Compound: CC(C)(C)c1nc(N2CCC(O)C2)c2ncn(Cc3ccc(F)cc3Cl)c2n1 (stereo not drawn) [Example 42, 1-[2-tert-butyl-9-[(2-chloro-4-fluorophenyl)methyl]purin-6-yl]pyrrolidin-3-ol]
- EC50 (human CB1 receptors): > 10000 nM
- EC50 (human CB2 receptors): 3.7 nM

Compound: CC(C)(C)COc1nc(N2CCC(F)(F)C2)c2ncn(Cc3ccccc3S(C)(=O)=O)c2n1 [Example 126, 6-(3,3-difluoropyrrolidin-1-yl)-2-(2,2-dimethylpropoxy)-9-[(2-methylsulfonylphenyl)methyl]purine]
- EC50 (human CB1 receptors): > 10000 nM
- EC50 (human CB2 receptors): 24.5 nM

Compound: CC(C)(C)Nc1nc(N2CCC(F)(F)C2)c2ncn(Cc3ccccc3Cl)c2n1 [Example 107, N-tert-butyl-9-[(2-chlorophenyl)methyl]-6-(3,3-difluoropyrrolidin-1-yl)purin-2-amine]
- EC50 (human CB1 receptors): > 10000 nM
- EC50 (human CB2 receptors): 8.1 nM

Compound: CC(=O)N[C@H]1CCN(c2nc(C(C)(C)C)nc3c2ncn3Cc2ccccc2C(F)(F)F)C1 [Example 51, N—[(S)-1-[2-tert-butyl-9-[[2-(trifluoromethyl)phenyl]methyl]purin-6-yl]pyrrolidin-3-yl]acetamide]
- EC50 (human CB1 receptors): > 10000 nM
- EC50 (human CB2 receptors): 64.7 nM

Compound: CC(C)(C)c1nc(N2CCC(F)(F)C2)c2ncn(Cc3nnnn3C3CC3)c2n1 [Example 156, 2-tert-butyl-9-[(1-cyclopropyltetrazol-5-yl)methyl]-6-(3,3-difluoropyrrolidin-1-yl)purine]
- EC50 (human CB1 receptors): > 10000 nM
- EC50 (human CB2 receptors): 9.1 nM

Compound: CC1(O)CCN(c2nc(C(C)(C)C)nc3c2ncn3Cc2ccccc2C(F)(F)F)C1 (stereo not drawn) [Example 67, 1-[2-tert-butyl-9-[[2-(trifluoromethyl)phenyl]methyl]purin-6-yl]-3-methylpyrrolidin-3-ol]
- EC50 (human CB1 receptors): > 10000 nM
- EC50 (human CB2 receptors): 9 nM

Compound: Cc1nnc(Cn2cnc3c(N4CC(F)(F)C(F)(F)C4)nc(C(C)(C)C)nc32)o1 [Example 79, 2-[[2-tert-butyl-6-(3,3,4,4-tetrafluoropyrrolidin-1-yl)purin-9-yl]methyl]-5-methyl-1,3,4-oxadiazole]
- EC50 (human CB1 receptors): > 10000 nM
- EC50 (human CB2 receptors): 116 nM

Compound: CC(C)(C)Nc1nc(N2CC[C@H](O)C2)c2ncn(CCC(F)(F)F)c2n1 [Example 130, (3S)-1-[2-(tert-butylamino)-9-(3,3,3-trifluoropropyl)purin-6-yl]pyrrolidin-3-ol]
- EC50 (human CB1 receptors): > 10000 nM
- EC50 (human CB2 receptors): 215 nM

Compound: FC1(F)CCN(c2nc(Cl)nc3c2ncn3Cc2ccccc2)C1 [Example 154, 9-benzyl-2-chloro-6-(3,3-difluoropyrrolidin-1-yl)purine]
- EC50 (human CB1 receptors): > 10000 nM
- EC50 (human CB2 receptors): 211 nM

Compound: CC(C)(C)COc1nc(N2CCC(F)(F)C2)c2ncn(Cc3ccccc3C(F)(F)F)c2n1 [Example 125, 6-(3,3-difluoropyrrolidin-1-yl)-2-(2,2-dimethylpropoxy)-9-[[2-(trifluoromethyl)phenyl]methyl]purine]
- EC50 (human CB1 receptors): > 10000 nM
- EC50 (human CB2 receptors): 2.6 nM

Compound: CC(C)(C)c1nc(N2CC[C@H](O)C2)c2ncn(Cc3nnnn3CC3CC3)c2n1 [Example 164, (3S)-1-[2-tert-butyl-9-[[1-(cyclopropylmethyl)tetrazol-5-yl]methyl]purin-6-yl]pyrrolidin-3-ol]
- EC50 (human CB1 receptors): > 10000 nM
- EC50 (human CB2 receptors): 20.7 nM

Compound: CC(C)(C)c1nc(N2CCC(O)C2)c2ncn(Cc3cccnc3Cl)c2n1 (stereo not drawn) [Example 33, 1-[2-tert-butyl-9-[(2-chloropyridin-3-yl)methyl]purin-6-yl]pyrrolidin-3-ol]
- EC50 (human CB1 receptors): > 10000 nM
- EC50 (human CB2 receptors): 3.4 nM

Compound: CC(=O)N[C@H]1CCN(c2nc(C(C)(C)C)nc3c2ncn3Cc2cccnc2Cl)C1 [Example 53, N—[(S)-1-[2-tert-butyl-9-[(2-chloropyridin-3-yl)methyl]purin-6-yl]pyrrolidin-3-yl]acetamide]
- EC50 (human CB1 receptors): > 10000 nM
- EC50 (human CB2 receptors): 175 nM

Compound: Cc1nonc1Cn1cnc2c(N3CCC(O)C3)nc(C(C)(C)C)nc21 (stereo not drawn) [Example 43, 1-[2-tert-butyl-9-[(4-methyl-1,2,5-oxadiazol-3-yl)methyl]purin-6-yl]pyrrolidin-3-ol]
- EC50 (human CB1 receptors): > 10000 nM
- EC50 (human CB2 receptors): 16.6 nM

Compound: Cc1nonc1Cn1cnc2c(N3CC4(COC4)C3)nc(C(C)(C)C)nc21 [Example 149, 6-[2-tert-butyl-9-[(4-methyl-1,2,5-oxadiazol-3-yl)methyl]purin-6-yl]-2-oxa-6-azaspiro[3.3]heptane]
- EC50 (human CB1 receptors): > 10000 nM
- EC50 (human CB2 receptors): 185 nM

Compound: CC(C)(C)c1nc(N2CCC(F)(F)C2)c2ncn(CC(=O)c3ccccn3)c2n1 [Example 24, 2-[2-tert-butyl-6-(3,3-difluoropyrrolidin-1-yl)purin-9-yl]-1-pyridin-2-ylethanone]
- EC50 (human CB1 receptors): > 10000 nM
- EC50 (human CB2 receptors): 69.2 nM

Compound: CC(C)(C)c1nc(N2CCC(O)C2)c2ncn(Cc3ccccc3C(F)(F)F)c2n1 (stereo not drawn) [Example 28, 1-[2-tert-butyl-9-[[2-(trifluoromethyl)phenyl]methyl]purin-6-yl]pyrrolidin-3-ol]
- EC50 (human CB1 receptors): > 10000 nM
- EC50 (human CB2 receptors): 1 nM

Compound: Cc1nonc1Cn1cnc2c(N3CCC(F)(F)C3)nc(NC(C)(C)C)nc21 [Example 111, N-tert-butyl-6-(3,3-difluoropyrrolidin-1-yl)-9-[(4-methyl-1,2,5-oxadiazol-3-yl)methyl]purin-2-amine]
- EC50 (human CB1 receptors): > 10000 nM
- EC50 (human CB2 receptors): 14.7 nM

Compound: COCCn1cnc2c(N3CCC4(COC4)C3)nc(C(C)(C)C)nc21 [Example 63, 7-[2-tert-butyl-9-(2-methoxyethyl)purin-6-yl]-2-oxa-7-azaspiro[3.4]octane]
- EC50 (human CB1 receptors): > 10000 nM
- EC50 (human CB2 receptors): 661 nM

Compound: Cc1noc(Cn2cnc3c(N4CCC(F)(F)C4)nc(NC(C)(C)C)nc32)n1 [Example 115, N-tert-butyl-6-(3,3-difluoropyrrolidin-1-yl)-9-[(3-methyl-1,2,4-oxadiazol-5-yl)methyl]purin-2-amine]
- EC50 (human CB1 receptors): > 10000 nM
- EC50 (human CB2 receptors): 195 nM

Compound: CC(=O)N[C@H]1CCN(c2nc(C(C)(C)C)nc3c2ncn3Cc2ccccc2S(C)(=O)=O)C1 [Example 52, N—[(S)-1-[2-tert-butyl-9-[(2-methylsulfonylphenyl)methyl]purin-6-yl]pyrrolidin-3-yl]acetamide]
- EC50 (human CB1 receptors): > 10000 nM
- EC50 (human CB2 receptors): 229 nM

Compound: CC(C)(C)c1nc(N2CCC(F)(F)C2)c2ncn(CC(=O)c3ccccc3Cl)c2n1 [Example 17, 2-[2-tert-butyl-6-(3,3-difluoropyrrolidin-1-yl)purin-9-yl]-1-(2-chlorophenyl)ethanone]
- EC50 (human CB1 receptors): > 10000 nM
- EC50 (human CB2 receptors): 3.5 nM

Compound: CC(C)(C)c1nc(N2CCC3(COC3)C2)c2ncn(Cc3c[nH]nc3C(F)(F)F)c2n1 [Example 76, 7-[2-tert-butyl-9-[[3-(trifluoromethyl)-1H-pyrazol-4-yl]methyl]purin-6-yl]-2-oxa-7-azaspiro[3.4]octane]
- EC50 (human CB1 receptors): > 10000 nM
- EC50 (human CB2 receptors): 153 nM

Compound: CC(C)(C)c1nc(N2CC[C@H](O)C2)c2ncn(CCC(F)(F)F)c2n1 [Example 99, (3S)-1-[2-tert-butyl-9-(3,3,3-trifluoropropyl)purin-6-yl]pyrrolidin-3-ol]
- EC50 (human CB1 receptors): > 10000 nM
- EC50 (human CB2 receptors): 228 nM

Compound: Cc1nonc1Cn1cnc2c(N3CCC(C)(O)C3)nc(NC(C)(C)C)nc21 (stereo not drawn) [Example 123, 1-[2-(tert-butylamino)-9-[(4-methyl-1,2,5-oxadiazol-3-yl)methyl]purin-6-yl]-3-methylpyrrolidin-3-ol]
- EC50 (human CB1 receptors): > 10000 nM
- EC50 (human CB2 receptors): 563 nM

Compound: CC(C)(C)Nc1nc(N2CC[C@H](O)C2)c2ncn(Cc3ccccc3C(F)(F)F)c2n1 [Example 117, (3S)-1-[2-(tert-butylamino)-9-[[2-(trifluoromethyl)phenyl]methyl]purin-6-yl]pyrrolidin-3-ol]
- EC50 (human CB1 receptors): > 10000 nM
- EC50 (human CB2 receptors): 7.2 nM

Compound: Cn1nnnc1Cn1cnc2c(N3CCC(F)(F)C3)nc(NC(C)(C)C)nc21 [Example 113, N-tert-butyl-6-(3,3-difluoropyrrolidin-1-yl)-9-[(1-methyltetrazol-5-yl)methyl]purin-2-amine]
- EC50 (human CB1 receptors): > 10000 nM
- EC50 (human CB2 receptors): 249 nM

Compound: CC1(O)CCN(c2nc(C(C)(C)C)nc3c2ncn3Cc2c[nH]nc2C(F)(F)F)C1 (stereo not drawn) [Example 84, 1-[2-tert-butyl-9-[[3-(trifluoromethyl)-1H-pyrazol-4-yl]methyl]purin-6-yl]-3-methylpyrrolidin-3-ol]
- EC50 (human CB1 receptors): > 10000 nM
- EC50 (human CB2 receptors): 79.3 nM

Compound: CCn1cnc2c(N3CCC(F)(F)C3)nc(C(C)(C)C)nc21 [Example 9, 2-tert-butyl-6-(3,3-difluoropyrrolidin-1-yl)-9-ethylpurine]
- EC50 (human CB1 receptors): > 10000 nM
- EC50 (human CB2 receptors): 48.8 nM

Compound: CC(C)(C)c1nc(N2CCC(O)C2)c2ncn(CCC(F)(F)F)c2n1 (stereo not drawn) [Example 45, 1-[2-tert-butyl-9-(3,3,3-trifluoropropyl)purin-6-yl]pyrrolidin-3-ol]
- EC50 (human CB1 receptors): > 10000 nM
- EC50 (human CB2 receptors): 49.6 nM

Compound: CC1(O)CCN(c2nc(NC(C)(C)C)nc3c2ncn3Cc2c[nH]nc2C(F)(F)F)C1 (stereo not drawn) [Example 136, 1-[2-(tert-butylamino)-9-[[3-(trifluoromethyl)-1H-pyrazol-4-yl]methyl]purin-6-yl]-3-methylpyrrolidin-3-ol]
- EC50 (human CB1 receptors): > 10000 nM
- EC50 (human CB2 receptors): 150 nM
